# Measured values reported in ChEMBL document CHEMBL3885881, “DrugMatrix”.
# Species on record: Rattus norvegicus
# Assay: DrugMatrix - Regimen: Daily Repeat
# Type: toxicity, organism-based, Sprague-Dawley
# Set-up: regimen Daily Repeat, gender Male, age 6-8 weeks
# Settings: in vivo, po, route oral GAVAGE, vehicle 100 % WATER; for ABSOLUTE BASOPHIL / ABSOLUTE EOSINOPHIL / ABSOLUTE LYMPHOCYTE / ABSOLUTE MONOCYTE / ABSOLUTE SEGMENTED NEUTROPHIL / BASOPHIL / EOSINOPHIL / ERYTHROCYTE COUNT / HEMATOCRIT / HEMOGLOBIN / LEUKOCYTE COUNT / LYMPHOCYTE / MEAN CORPUSCULAR HEMOGLOBIN / MEAN CORPUSCULAR HEMOGLOBIN CONCENTRATION / MEAN CORPUSCULAR VOLUME / MONOCYTE / NEUTROPHIL / NUCLEATED RED BLOOD CELLS / PLATELET COUNT: tissue Blood; for ALANINE AMINOTRANSFERASE / ALBUMIN / ALKALINE PHOSPHATASE / ASPARTATE AMINOTRANSFERASE / BLOOD UREA NITROGEN / CARBON DIOXIDE / CHLORIDE / CHOLESTEROL / CREATINE PHOSPHOKINASE / CREATININE / GLUCOSE / LACTATE DEHYDROGENASE / LIPASE / PHOSPHORUS / POTASSIUM / SODIUM / TOTAL BILIRUBIN / TOTAL PROTEIN / URIC ACID: tissue Plasma
# [1] = 1 mg/kg, 120 h, dose level Low, time 5 day
# [2] = 175 mg/kg, 72 h, dose level High, time 3 day
# [3] = 175 mg/kg, 120 h, dose level High, time 5 day
smiles,measurement,setting,value
CN1C2CCCC1CC(NC(=O)c1nn(C)c3ccccc13)C2 (centres undefined) [GRANISETRON],ABSOLUTE BASOPHIL,[1],0 CELLS/uL
same,ABSOLUTE EOSINOPHIL,[1],0 CELLS/uL
same,ABSOLUTE LYMPHOCYTE,[1],8153 CELLS/uL
same,ABSOLUTE MONOCYTE,[1],97.67 CELLS/uL
same,ABSOLUTE SEGMENTED NEUTROPHIL,[1],549.33 CELLS/uL
same,BASOPHIL,[1],0%
same,EOSINOPHIL,[1],0%
same,ERYTHROCYTE COUNT,[1],5.09 x10E6/uL
same,HEMATOCRIT,[1],31.63%
same,HEMOGLOBIN,[1],12.5 G/DL
same,LEUKOCYTE COUNT,[1],8.8 x10E3/uL
same,LYMPHOCYTE,[1],92.67%
same,MEAN CORPUSCULAR HEMOGLOBIN,[1],24.53 pg
same,MEAN CORPUSCULAR HEMOGLOBIN CONCENTRATION,[1],39.6 G/DL
same,MEAN CORPUSCULAR VOLUME,[1],62.03 fL
same,MONOCYTE,[1],1%
same,NEUTROPHIL,[1],6.33%
same,NUCLEATED RED BLOOD CELLS,[1],0.67 /100WBC
same,PLATELET COUNT,[1],832 x10E3/uL
same,ALANINE AMINOTRANSFERASE,[1],51 u/L
same,ALBUMIN,[1],4.2 G/DL
same,ALKALINE PHOSPHATASE,[1],374 u/L
same,ASPARTATE AMINOTRANSFERASE,[1],84.33 u/L
same,BLOOD UREA NITROGEN,[1],16 mg/dL
same,CARBON DIOXIDE,[1],31 mmol/L
same,CHLORIDE,[1],101.67 MEQ/L
same,CHOLESTEROL,[1],74.33 mg/dL
same,CREATINE PHOSPHOKINASE,[1],215.67 u/L
same,CREATININE,[1],0.16 mg/dL
same,GLUCOSE,[1],149.33 mg/dL
same,LACTATE DEHYDROGENASE,[1],154 u/L
same,LIPASE,[1],9 u/L
same,PHOSPHORUS,[1],10.23 mg/dL
same,POTASSIUM,[1],5.82 MEQ/L
same,SODIUM,[1],145 MEQ/L
same,TOTAL BILIRUBIN,[1],0.23 mg/dL
same,TOTAL PROTEIN,[1],6.23 G/DL
same,URIC ACID,[1],0.7 mg/dL
same,ABSOLUTE BASOPHIL,[2],0 CELLS/uL
same,ABSOLUTE EOSINOPHIL,[2],0 CELLS/uL
same,ABSOLUTE LYMPHOCYTE,[2],10622.67 CELLS/uL
same,ABSOLUTE MONOCYTE,[2],19.67 CELLS/uL
same,ABSOLUTE SEGMENTED NEUTROPHIL,[2],557.67 CELLS/uL
same,BASOPHIL,[2],0%
same,EOSINOPHIL,[2],0%
same,ERYTHROCYTE COUNT,[2],5.65 x10E6/uL
same,HEMATOCRIT,[2],35.33%
same,HEMOGLOBIN,[2],13.77 G/DL
same,LEUKOCYTE COUNT,[2],11.2 x10E3/uL
same,LYMPHOCYTE,[2],93.67%
same,MEAN CORPUSCULAR HEMOGLOBIN,[2],24.43 pg
same,MEAN CORPUSCULAR HEMOGLOBIN CONCENTRATION,[2],38.93 G/DL
same,MEAN CORPUSCULAR VOLUME,[2],62.63 fL
same,MONOCYTE,[2],0.33%
same,NEUTROPHIL,[2],6%
same,NUCLEATED RED BLOOD CELLS,[2],0 /100WBC
same,PLATELET COUNT,[2],1057.67 x10E3/uL
same,ALANINE AMINOTRANSFERASE,[2],72.67 u/L
same,ALBUMIN,[2],4 G/DL
same,ALKALINE PHOSPHATASE,[2],502.33 u/L
same,ASPARTATE AMINOTRANSFERASE,[2],95 u/L
same,BLOOD UREA NITROGEN,[2],13 mg/dL
same,CARBON DIOXIDE,[2],33 mmol/L
same,CHLORIDE,[2],100 MEQ/L
same,CHOLESTEROL,[2],75.67 mg/dL
same,CREATINE PHOSPHOKINASE,[2],557.67 u/L
same,CREATININE,[2],0.12 mg/dL
same,GLUCOSE,[2],149.33 mg/dL
same,LACTATE DEHYDROGENASE,[2],186 u/L
same,LIPASE,[2],10 u/L
same,PHOSPHORUS,[2],11.47 mg/dL
same,POTASSIUM,[2],5.72 MEQ/L
same,SODIUM,[2],145.1 MEQ/L
same,TOTAL BILIRUBIN,[2],0.17 mg/dL
same,TOTAL PROTEIN,[2],5.83 G/DL
same,URIC ACID,[2],0.5 mg/dL
same,ABSOLUTE BASOPHIL,[3],0 CELLS/uL
same,ABSOLUTE EOSINOPHIL,[3],0 CELLS/uL
same,ABSOLUTE LYMPHOCYTE,[3],7981.33 CELLS/uL
same,ABSOLUTE MONOCYTE,[3],176.67 CELLS/uL
same,ABSOLUTE SEGMENTED NEUTROPHIL,[3],675.33 CELLS/uL
same,BASOPHIL,[3],0%
same,EOSINOPHIL,[3],0%
same,ERYTHROCYTE COUNT,[3],5.68 x10E6/uL
same,HEMATOCRIT,[3],35.93%
same,HEMOGLOBIN,[3],13.87 G/DL
same,LEUKOCYTE COUNT,[3],8.83 x10E3/uL
same,LYMPHOCYTE,[3],90%
same,MEAN CORPUSCULAR HEMOGLOBIN,[3],24.47 pg
same,MEAN CORPUSCULAR HEMOGLOBIN CONCENTRATION,[3],38.67 G/DL
same,MEAN CORPUSCULAR VOLUME,[3],63.37 fL
same,MONOCYTE,[3],2%
same,NEUTROPHIL,[3],8%
same,NUCLEATED RED BLOOD CELLS,[3],0 /100WBC
same,PLATELET COUNT,[3],1308.33 x10E3/uL
same,ALANINE AMINOTRANSFERASE,[3],86.67 u/L
same,ALBUMIN,[3],4.03 G/DL
same,ALKALINE PHOSPHATASE,[3],415.33 u/L
same,ASPARTATE AMINOTRANSFERASE,[3],102 u/L
same,BLOOD UREA NITROGEN,[3],16.67 mg/dL
same,CARBON DIOXIDE,[3],31.33 mmol/L
same,CHLORIDE,[3],100.33 MEQ/L
same,CHOLESTEROL,[3],67.33 mg/dL
same,CREATINE PHOSPHOKINASE,[3],224.33 u/L
same,CREATININE,[3],0.19 mg/dL
same,GLUCOSE,[3],146.33 mg/dL
same,LACTATE DEHYDROGENASE,[3],136.33 u/L
same,LIPASE,[3],11.67 u/L
same,PHOSPHORUS,[3],11.97 mg/dL
same,POTASSIUM,[3],5.51 MEQ/L
same,SODIUM,[3],146.57 MEQ/L
same,TOTAL BILIRUBIN,[3],0.17 mg/dL
same,TOTAL PROTEIN,[3],5.6 G/DL
same,URIC ACID,[3],0.57 mg/dL
